The target in this assay is T1, Syk tyrosine kinase (Homo sapiens, UniProt P43405).
T1 construct: FLAG tag (8 amino acid residues) (C); made in house; host or cells: Sf-9 insect cells (baculovirus, pFASTBAC HT)
In words: Syk tyrosine kinase inhibition test (SPA system). The format is biochemical. The following applies: His-tag fused human Syk, Band 3 peptide, [γ-33P]ATP, room temperature 1 hour; read-out: inhibition activity as IC50 value upon Syk tyrosine kinase.

The record followed here is patent publication US6432963B1, “Pyrimidine-5-carboxamide derivatives” (Yamanouchi Pharmaceutical Co., Ltd., priority 1997, dated 2002).

Structures can show the parent of a compound that is named as a salt. A value given as a limit tells only on which side of the number the result lay.

Take `NCCNc1ncc(C(N)=O)c(Nc2ccc3ccccc3c2)n1` [2-(2-aminoethylamino)-4-(2-naphthylamino)pyrimidine-5-carboxamide]: the half-maximal inhibitory concentration (IC50) was no more than 100 nM. For the molecule `NCCNc1ncc(C(N)=O)c(Nc2cccc(C(F)(F)F)c2)n1` [2-(2-aminoethylamino)-4-(3-trifluoromethylanilino)pyrimidine-5-carboxamide], the IC50 is no more than 100 nM. Turning to `NCCNc1ncc(C(N)=O)c(Nc2cccc([N+](=O)[O-])c2)n1` [2-(2-aminoethylamino)-4-(3-nitroanilino)pyrimidine-5-carboxamide], the IC50 was no more than 100 nM. As to `NC(=O)c1cnc(NC2CCCCC2N)nc1Nc1cc(Cl)cc(Cl)c1` (stereo not drawn) [2-(cis-2-aminohexylamino)-4-(3,5-dichloroanilino)pyrimidine-5-carboxamide dihydrochloride], the IC50 was no more than 100 nM.

As usually defined, the IC50 is the concentration that inhibits the measured activity by half.
